Laboratory results taken from patent US20200261434A1, “IDH1 INHIBITORS FOR THE TREATMENT OF HAEMATOLOGICAL MALIGNANCIES AND SOLID TUMORS” (Agios Pharmaceuticals, Inc., priority 2016, published 2020).
Residue numbers refer to the chain shown, from its start. In brackets after ≈: the same amount, converted by molar mass.

How the values were obtained:
IDH2 R172K = target: T1, IDH2 R172K (Homo sapiens, UniProt P48735, R172K); experiment: Phase 1/2 clinical study AG221-C-001, pharmacodynamic response (2-HG), R172K subjects; format: in vivo; conditions: subjects with R172K mutation
T1 construct: endogenous in cells; host or cells: malignant haematologic cells of human subjects (in vivo; 2-HG measured in blood)
T1 sequence (P48735 40-452 R172K): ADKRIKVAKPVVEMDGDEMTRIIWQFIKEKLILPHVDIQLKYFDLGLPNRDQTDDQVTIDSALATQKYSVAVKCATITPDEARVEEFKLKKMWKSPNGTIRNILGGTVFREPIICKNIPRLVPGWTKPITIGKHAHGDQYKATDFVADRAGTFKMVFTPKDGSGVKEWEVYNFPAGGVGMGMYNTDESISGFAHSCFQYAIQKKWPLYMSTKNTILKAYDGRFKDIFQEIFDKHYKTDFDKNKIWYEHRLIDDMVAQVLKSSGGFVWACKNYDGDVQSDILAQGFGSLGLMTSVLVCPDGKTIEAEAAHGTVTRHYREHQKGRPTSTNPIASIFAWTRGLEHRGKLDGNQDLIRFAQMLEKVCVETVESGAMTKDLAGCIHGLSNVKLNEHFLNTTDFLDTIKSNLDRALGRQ
Excerpt: (§1) Three days prior to the start of daily dosing of AG-221 (Day −3), the first 3 subjects enrolled in each cohort in the dose escalation phase and the first 15 subjects enrolled in each arm of Part 1 Expansion will receive a single dose of AG-221 in clinic and have serial blood and urine samples obtained for determination of blood and urine concentrations of AG-221, its metabolite AGI-16903, 2-HG, and α-KG. A full 72-hour PK/PD profile will be conducted: subjects will be required to remain at the study site for 10 hours on Day −3 and return on Days −2, −1, and 1 for 24-, 48-, and 72-hour samples, respectively. During the in-clinic period on Day −3, clinical observation and serial 12-lead ECGs and vital signs assessments will be conducted.
(§2) Subjects in the dose escalation phase and Part 1 Expansion also will undergo PK/PD assessments over a 10-hour period on C1D15, C2D1, and C4D1. […] These subjects will have urine collected for PK/PD evaluation at screening; prior to dosing on C1D15, C2D1 and Day 1 of all cycles thereafter; and at the End of Treatment visit. Available bone marrow biopsy samples also will be assessed for 2-HG and α-KG levels.
(§3) Serial blood sampling for determination of concentration-time profiles of COMPOUND 1 and its metabolite (6-(6-(trifluoromethyl)pyridin-2-yl)-N2-(2-(trifluoromethyl)pyridin-4-yl)-1,3,5-triazine-2,4-diamine). […]

[1] = Phase 1/2 clinical study AG221-C-001, safety; format: in vivo, human; conditions: 100 mg
Excerpt: Toxicity severity will be graded according to the National Cancer Institute Common Terminology Criteria for Adverse Events (NCI CTCAE) Version 4.03. A DLT is defined as outlined below.
Monitoring of AEs, including determination of DLTs, serious adverse events (SAEs), and AEs leading to discontinuation; safety laboratory parameters; physical examination findings; vital signs; 12-lead ECGs; LVEF; and ECOG PS.
The severity of AEs will be assessed by the NCI CTCAE, Version 4.03.

IDH2 R140Q = target: T2, IDH2 R140Q (Homo sapiens, UniProt P48735, R140Q); experiment: Phase 1/2 clinical study AG221-C-001, pharmacodynamic response (2-HG plasma levels), R140Q subjects; format: in vivo; conditions: most subjects with R140Q mutation, all doses, by Day 1 of Cycle 2
T2 construct: endogenous in cells; host or cells: malignant haematologic cells of human subjects (in vivo; 2-HG measured in plasma)
T2 sequence (P48735 40-452 R140Q): T1 sequence (P48735 40-452 R172K) with R101Q, K133R
Excerpt: as §1, §2, §3

[2] = test system: advanced hematologic malignancies with an IDH2 mutation; experiment: Phase 1/2 clinical study AG221-C-001, clinical activity (overall response rate); format: in vivo, human; conditions: 44 subjects treated at 100 mg QD, preliminary efficacy data
Excerpt: Response to treatment and treatment decisions in all subjects will be determined by the Investigators based on modified International Working Group (IWG) response criteriaor other appropriate response criteria for the malignancy under study.
Overall response rate (ORR), the primary efficacy endpoint, is defined as the rate of responders including complete remission (CR), CR with incomplete platelet recovery (CRp), marrow CR (mCR) (morphologic leukemia-free state [MLFS] for subjects with AML), CR with incomplete hematologic recovery (CRi), and partial remission (PR). Other measures of clinical activity including complete remission rate (CRR), duration of remission/response, event-free survival, overall survival, and time to remission/response will be summarized.
For Phase 1 Dose Escalation/Part 1 Expansion, the efficacy analysis of response rates as assessed by the site Investigators using modified International Working Group (IWG) response criteria will be conducted in Full Analysis Set for each dose level, expansion arm, and overall if appropriate.

[3] = solubility in fasted state simulated intestinal fluid (FASSIF); format: physicochemical; conditions: pH 6.1, at 4 hours

Structure (SMILES)	inhibition of 2-HG and exposure, dependence on dose (IDH2 R172K)	safety profile, including ≥Grade 3 [1]	inhibition of 2-HG plasma levels (IDH2 R140Q)	overall response rate [2]	solubility at 4 h [3]
CC(C)(O)CNc1nc(Nc2ccnc(C(F)(F)F)c2)nc(-c2cccc(C(F)(F)F)n2)n1 [COMPOUND 1, 2-methyl-1-[(4-[6-(trifluoromethyl)pyridin-2-yl]-6-{[2-(trifluoromethyl)pyridin-4-yl]amino}-1,3,5-triazin-2-yl)amino]propan-2-ol]	Increasing dose is associated with higher exposure and inhibition of 2-HG	consistent with that of lower doses	up to 98%	36.4%	
N#Cc1ccnc(N2C(=O)CC[C@H]2C(=O)N(c2cncc(F)c2)[C@H](C(=O)NC2CC(F)(F)C2)c2ccccc2Cl)c1 [Form 2, (S)—N—((S)-1-(2-chlorophenyl)-2-((3,3-difluorocyclobutyl)amino)-2-oxoethyl)-1-(4-cyanopyridin-2-yl)-N-(5-fluoropyridin-3-yl)-5-oxopyrrolidine-2-carboxamide]					~18 µg/mL (≈ 30.9 µM)
